Experimental data reported in ChEMBL document CHEMBL2062423 (ACS Med Chem Lett, 2012).
Activity calls are given as the source filed them. No cut-off for these calls is given here.

Columns and labels:
[1] = target: Sodium-dependent dopamine transporter (Homo sapiens, UniProt Q01959); test: Displacement of [3H]WIN-35,428 from human DAT expressed in mouse N2A cells after 15 mins by liquid scintillation counting; type: cell-based
[2] = target: Sodium-dependent dopamine transporter (Rattus norvegicus) (UniProt P23977); test: Binding affinity to DAT in rat striatal membrane at 10 nM incubated for 1.5 hrs prior to irradiation measured after 5 mins by photoaffinity labeling-based autoradiographic analysis; type: cell membranes; conditions: Striatum, tested as the 125I-labelled form
Sequence of Sodium-dependent dopamine transporter (Rattus norvegicus) (P23977 whole entry): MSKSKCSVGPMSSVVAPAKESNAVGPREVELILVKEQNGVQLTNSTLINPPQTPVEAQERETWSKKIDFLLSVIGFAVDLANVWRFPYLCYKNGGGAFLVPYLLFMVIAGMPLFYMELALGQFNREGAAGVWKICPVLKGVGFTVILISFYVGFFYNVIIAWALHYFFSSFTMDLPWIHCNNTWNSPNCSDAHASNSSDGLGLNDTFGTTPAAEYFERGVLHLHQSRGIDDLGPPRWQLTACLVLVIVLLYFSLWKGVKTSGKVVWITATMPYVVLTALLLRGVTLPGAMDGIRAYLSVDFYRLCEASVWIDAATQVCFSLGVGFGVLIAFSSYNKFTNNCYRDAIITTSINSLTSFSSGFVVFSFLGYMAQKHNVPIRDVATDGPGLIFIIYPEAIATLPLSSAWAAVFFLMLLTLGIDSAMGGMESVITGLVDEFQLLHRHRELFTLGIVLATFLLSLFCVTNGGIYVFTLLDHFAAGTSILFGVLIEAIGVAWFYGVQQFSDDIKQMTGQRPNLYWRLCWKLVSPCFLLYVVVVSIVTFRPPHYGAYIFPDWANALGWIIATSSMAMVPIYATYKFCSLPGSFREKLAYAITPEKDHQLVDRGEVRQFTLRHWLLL

[3] = target: Sodium-dependent dopamine transporter (Rattus norvegicus) (UniProt P23977); test: Binding affinity to DAT in rat striatal membrane at 10 nM incubated for 1.5 hrs prior to irradiation measured after 5 mins by photoaffinity labeling-based autoradiographic analysis in presence of (-)-cocaine; type: cell membranes; conditions: Striatum, tested as the 125I-labelled form
[4] = target: Sodium-dependent dopamine transporter (Rattus norvegicus) (UniProt P23977); test: Binding affinity to DAT in rat striatal membrane at 10 nM incubated for 1.5 hrs prior to irradiation measured after 5 mins by photoaffinity labeling-based autoradiographic analysis in presence of D-methylphenidate; type: cell membranes; conditions: Striatum, tested as the 125I-labelled form

Sequence of Sodium-dependent dopamine transporter (Q01959 whole entry): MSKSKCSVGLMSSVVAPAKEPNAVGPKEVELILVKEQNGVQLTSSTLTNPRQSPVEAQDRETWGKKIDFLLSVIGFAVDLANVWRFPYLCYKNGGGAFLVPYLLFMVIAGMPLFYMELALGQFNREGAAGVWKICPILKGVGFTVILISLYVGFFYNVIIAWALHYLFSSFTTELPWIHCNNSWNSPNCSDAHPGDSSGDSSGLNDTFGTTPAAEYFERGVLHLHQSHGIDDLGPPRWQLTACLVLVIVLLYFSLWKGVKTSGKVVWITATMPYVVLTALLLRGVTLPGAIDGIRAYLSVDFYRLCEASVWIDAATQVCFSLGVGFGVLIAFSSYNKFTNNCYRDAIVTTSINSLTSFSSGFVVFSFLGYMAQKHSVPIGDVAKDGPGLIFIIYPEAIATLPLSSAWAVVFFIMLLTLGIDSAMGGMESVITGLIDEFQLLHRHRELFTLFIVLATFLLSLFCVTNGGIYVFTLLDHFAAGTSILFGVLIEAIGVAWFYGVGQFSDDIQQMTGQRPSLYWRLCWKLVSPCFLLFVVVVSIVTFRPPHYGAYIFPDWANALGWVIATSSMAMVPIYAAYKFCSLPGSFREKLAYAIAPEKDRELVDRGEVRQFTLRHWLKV

## COC(=O)[C@H](c1ccc(Cl)c(Cl)c1)[C@H]1CCCCN1 (racemic)
[1]
  Ki: 1.8 nM

## COC(=O)[C@H](c1ccc(N)cc1)[C@H]1CCCCN1 (racemic)
[1]
  Ki: 6.3 nM

## COC(=O)[C@H](c1ccc([N+](=O)[O-])cc1)[C@H]1CCCCN1 (racemic)
[1]
  Ki: 77 nM

## COC(=O)[C@H](c1ccc(N=[N+]=[N-])c(I)c1)[C@H]1CCCCN1 (racemic)
[1]
  Ki: 4 nM
[2]
  Activity: Active
[3]
  Activity: inactive
[4]
  Activity: inactive

## COC(=O)[C@H](c1ccc(N)c(I)c1)[C@H]1CCCCN1 (racemic)
[1]
  Ki: 9.1 nM

## COC(=O)[C@H](c1ccc(N=[N+]=[N-])cc1)[C@H]1CCCCN1 (racemic)
[1]
  Ki: 35 nM
